Where a name gives a salt, the structure may show the parent alone.

This assay addresses GCN2 (Homo sapiens, UniProt Q9P2K8). The assay is described as follows: GCN2 enzyme assay (TR-FRET Lanthascreen, GFP-eIF2alpha phosphorylation). To be noted: 10 μM ATP, 80 nM GFP-eIF2a, 30 nM GCN2. The class given is biochemical. The source says: GCN2: Assay Principle & Conditions
This assay can quantificate the activity of the serin kinase GCN2 (general control non-derepressible-2).
This kinase is involved in the stress metabolism of cells. It is activated upon starvation (amino acid depletion). Its natural substrate is eIF2a (eukaryotic initiation factor 2 alpha subunit), a translation factor, which gets activated (phosphorylated) by GCN2 in case of an amino acid bottleneck in the cells. This in turn leads to a halt of the protein synthesis. Inhibition of GCN2 results in stopping this mechanism: The cell can not stop protein production upon “starvation” stress.
The assay is run in two steps: the enzymatic reaction and the detection step. In the first step GCN2 is incubated with 10 μM ATP and 80 nM of the GFP-labelled substrate eIF2alpha at room temperature.
The enzymatic reaction is stopped by addition of EDTA. The amount of phosphorylated eIF2alpha is determined by TR-FRET (Lanthascreen): A complex is formed consisting of antibody and GFP labelled phospho-eIF2a, which allows a FRET upon exitation at 340 nm.
Final Concentrations in the Enzymatic Reaction

Sequence of GCN2 (Q9P2K8 whole entry, species assumed): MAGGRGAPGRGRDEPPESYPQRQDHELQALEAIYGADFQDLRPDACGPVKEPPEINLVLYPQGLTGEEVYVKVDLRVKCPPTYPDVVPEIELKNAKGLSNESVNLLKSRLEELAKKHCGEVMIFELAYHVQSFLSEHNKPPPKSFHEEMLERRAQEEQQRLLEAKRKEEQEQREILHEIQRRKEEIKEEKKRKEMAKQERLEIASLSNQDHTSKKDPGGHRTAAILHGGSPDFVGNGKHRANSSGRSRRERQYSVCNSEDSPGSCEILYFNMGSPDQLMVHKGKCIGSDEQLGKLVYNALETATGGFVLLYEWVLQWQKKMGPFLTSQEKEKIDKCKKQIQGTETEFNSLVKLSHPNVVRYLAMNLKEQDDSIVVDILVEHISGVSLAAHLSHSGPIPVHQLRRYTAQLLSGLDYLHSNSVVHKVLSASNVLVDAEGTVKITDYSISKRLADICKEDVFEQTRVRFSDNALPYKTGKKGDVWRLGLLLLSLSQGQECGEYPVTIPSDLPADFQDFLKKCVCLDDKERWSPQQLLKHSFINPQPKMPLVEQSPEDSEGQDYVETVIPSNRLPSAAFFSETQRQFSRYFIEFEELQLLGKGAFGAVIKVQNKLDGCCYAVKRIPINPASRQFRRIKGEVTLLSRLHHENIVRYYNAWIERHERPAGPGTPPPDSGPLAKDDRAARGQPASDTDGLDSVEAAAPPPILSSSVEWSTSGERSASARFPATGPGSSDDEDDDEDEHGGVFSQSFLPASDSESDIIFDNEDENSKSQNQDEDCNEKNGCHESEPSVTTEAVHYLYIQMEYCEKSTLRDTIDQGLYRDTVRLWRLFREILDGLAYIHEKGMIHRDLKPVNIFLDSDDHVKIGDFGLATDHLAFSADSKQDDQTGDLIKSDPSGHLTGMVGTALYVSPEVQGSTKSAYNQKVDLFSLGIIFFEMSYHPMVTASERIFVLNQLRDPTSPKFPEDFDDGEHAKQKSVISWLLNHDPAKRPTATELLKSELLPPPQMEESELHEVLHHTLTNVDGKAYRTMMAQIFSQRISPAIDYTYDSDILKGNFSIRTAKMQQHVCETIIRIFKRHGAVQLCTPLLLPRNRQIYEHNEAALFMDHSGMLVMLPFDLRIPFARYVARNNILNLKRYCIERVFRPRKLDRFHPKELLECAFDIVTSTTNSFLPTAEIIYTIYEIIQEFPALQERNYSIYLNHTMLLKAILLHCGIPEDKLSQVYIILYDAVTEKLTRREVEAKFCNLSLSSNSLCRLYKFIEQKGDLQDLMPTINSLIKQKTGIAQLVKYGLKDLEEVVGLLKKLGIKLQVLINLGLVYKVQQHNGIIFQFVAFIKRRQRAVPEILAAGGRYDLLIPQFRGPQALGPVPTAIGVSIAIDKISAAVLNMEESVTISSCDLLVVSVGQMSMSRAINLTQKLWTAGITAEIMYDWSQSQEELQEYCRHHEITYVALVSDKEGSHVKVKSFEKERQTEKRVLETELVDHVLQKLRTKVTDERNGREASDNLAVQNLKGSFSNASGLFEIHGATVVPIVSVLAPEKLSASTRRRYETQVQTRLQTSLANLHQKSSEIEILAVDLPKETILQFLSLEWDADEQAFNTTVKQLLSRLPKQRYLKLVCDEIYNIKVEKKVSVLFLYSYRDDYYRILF

One may read the IC50 as the midpoint of a concentration-inhibition curve. A higher IC50 goes with weaker potency in that assay. Take `COc1ccc(-n2nnc3cnc(N[C@@H]4CC[C@H](C(=O)O)C4)nc32)cc1` [A79, (1S,3R)-3-[3-(4-methoxy-phenyl)-3H-[1,2,3]triazolo[4,5-d]pyrimidin-5-ylamino]-cyclopentanecarboxylic acid]: the IC50 was under 1 µM. The compound `COc1ccc(-n2nnc3cnc(NC4CCN(c5ccncc5)CC4)nc32)cc1` [A82, [3-(4-methoxy-phenyl)-3H-[1,2,3]triazolo[4,5-d]pyrimidin-5-yl]-(3,4,5,6-tetrahydro-2H-[1,4′]bipyridinyl-4-yl)-amine] returned an IC50 of under 1 µM. The compound `COc1ccc(-n2nnc3cnc(N[C@@H]4CCN(C(=O)CN(C)C)C4)nc32)cc1` [A83, 2-dimethylamino-1-{(R)-3-[3-(4-methoxy-phenyl)-3H-[1,2,3]triazolo[4,5-d]-pyrimidin-5-ylamino]-pyrrolidin-1-yl}-ethanone formate] yielded an IC50 of under 1 µM. Regarding `COc1ccc(-n2nnc3cnc(N[C@@H]4CCN(C(=O)CCN(C)C)C4)nc32)cc1` [A85, 3-dimethylamino-1-{(R)-3-[3-(4-methoxy-phenyl)-3H-[1,2,3]triazolo[4,5-d]-pyrimidin-5-ylamino]-pyrrolidin-1-yl}-propan-1-one formate], the IC50 was under 1 µM. In turn, `COc1ccc(-n2nnc3cnc(NC4CCN(CCN5CCCC5)CC4)nc32)cc1` [A86, [3-(4-methoxy-phenyl)-3H-[1,2,3]triazolo[4,5-d]pyrimidin-5-yl]-[1-(2-pyrrolidin-1-yl-ethyl)-piperidin-4-yl]-amine] registered a half-inhibitory concentration (IC50) of under 1 µM. `COc1ccc(-n2nnc3cnc(NC4CCNC(=O)C4)nc32)cc1` (stereo not drawn) [A87, 4-[3-(4-methoxy-phenyl)-3H-[1,2,3]triazolo[4,5-d]pyrimidin-5-ylamino]-piperidin-2-one]: the half-maximal inhibitory concentration (IC50) was in the range of 1 to 5 µM.

Turning to `COc1ccc(-n2nnc3cnc(N[C@H]4CC[C@@H](NC(=O)OCc5ccccc5)C4)nc32)cc1` [A89, {(1R,3S)-3-[3-(4-methoxy-phenyl)-3H-[1,2,3]triazolo[4,5-d]pyrimidin-5-ylamino]-cyclopentyl}-carbamic acid benzyl ester], the IC50 was in the range of 1 to 5 µM. As to `COc1ccc(-n2nnc3cnc(N[C@@H]4CCN(C(=O)Cn5cccn5)C4)nc32)cc1` [A90, 1-{(R)-3-[3-(4-methoxy-phenyl)-3H-[1,2,3]triazolo[4,5-d]pyrimidin-5-ylamino]-pyrrolidin-1-yl}-2-pyrazol-1-yl-ethanone], the IC50 is under 1 µM.

In turn, `COc1ccc(-n2nnc3cnc(N[C@H]4CCN(C(=O)CN(C)C)C4)nc32)cc1` [A91, 2-dimethylamino-1-{(S)-3-[3-(4-methoxy-phenyl)-3H-[1,2,3]triazolo[4,5-d]-pyrimidin-5-ylamino]-pyrrolidin-1-yl}-ethanone formate] showed an IC50 of 1 to 5 µM. As to `COc1ccc(-n2nnc3cnc(N[C@H]4CCN(C(=O)CCN(C)C)C4)nc32)cc1` [A92, 3-dimethylamino-1-{(S)-3-[3-(4-methoxy-phenyl)-3H-[1,2,3]triazolo[4,5-d]-pyrimidin-5-ylamino]-pyrrolidin-1-yl}-propan-1-one formate], the half-inhibitory concentration (IC50) fell in the range of 1 to 5 µM. The compound `N[C@H]1CC[C@H](Nc2ncc3nnn(-c4ccc(OCCN5CCOCC5)cc4)c3n2)CC1` [A95, trans-N-{3-[4-(2-morpholin-4-yl-ethoxy)-phenyl]-3H-[1,2,3]triazolo[4,5-d]pyrimidin-5-yl}-cyclohexane-1,4-diamine] gave an IC50 of under 1 µM. As for `N[C@H]1CC[C@H](Nc2ncc3nnn(-c4ccc(N5CCOCC5)cn4)c3n2)CC1` [A96, trans-N-[3-(5-morpholin-4-yl-pyridin-2-yl)-3H-[1,2,3]triazolo[4,5-d]pyrimidin-5-yl]-cyclohexane-1,4-diamine], the figure is 1 to 5 µM. `COc1ccc(-n2nnc3cnc(N[C@@H]4CC[C@H](C(=O)N5CCN(C)CC5)C4)nc32)cc1` [A97, {(1S,3R)-3-[3-(4-methoxy-phenyl)-3H-[1,2,3]triazolo[4,5-d]pyrimidin-5-ylamino]-cyclopentyl}-(4-methyl-piperazin-1-yl)-methanone] displayed an IC50 of under 1 µM. As for `COc1ccc(-n2nnc3cnc(N[C@@H]4CCOC4)nc32)cc1` [A98, [3-(4-methoxy-phenyl)-3H-[1,2,3]triazolo[4,5-d]pyrimidin-5-yl]-(R)-tetrahydrofuran-3-yl-amine], the figure is under 1 µM; as for `COC(=O)[C@H]1CC[C@H](Nc2ncc3nnn(-c4ccc(OC)cc4)c3n2)C1` [A110, (1S,3S)-3-[3-(4-methoxy-phenyl)-3H-[1,2,3]triazolo[4,5-d]pyrimidin-5-ylamino]-cyclopentanecarboxylic acid methyl ester], under 1 µM. As for `COC(=O)[C@@H]1CC[C@@H](Nc2ncc3nnn(-c4ccc(OC)cc4)c3n2)C1` [A113, (1R,3R)-3-[3-(4-methoxy-phenyl)-3H-[1,2,3]triazolo[4,5-d]pyrimidin-5-ylamino]-cyclopentanecarboxylic acid methyl ester], the figure is under 1 µM; as for `Cc1ccc2cc(-n3nnc4cnc(N[C@@H]5CCNC5)nc43)ccc2n1` [A126, [3-(2-methyl-quinolin-6-yl)-3H-[1,2,3]triazolo[4,5-d]pyrimidin-5-yl]-(R)-pyrrolidin-3-yl-amine], under 1 µM; as for `COc1ccc(-n2nnc3cnc(N[C@@H]4CC[C@@H](C(=O)O)C4)nc32)cc1` [A139, (1R,3R)-3-[3-(4-methoxy-phenyl)-3H-[1,2,3]triazolo[4,5-d]pyrimidin-5-ylamino]-cyclopentanecarboxylic acid], under 1 µM. For `CCOc1ccc(-n2nnc3cnc(N[C@@H]4CC[C@H](C(N)=O)C4)nc32)cc1` [A149, (1S,3R)-3-[3-(4-ethoxy-phenyl)-3H-[1,2,3]triazolo[4,5-d]pyrimidin-5-ylamino]-cyclopentanecarboxylic acid amide], the IC50 is under 1 µM. Regarding `NC(=O)[C@@H]1CC[C@@H](Nc2ncc3nnn(-c4ccc(N5CCOCC5=O)c(F)c4)c3n2)C1` [A154, (1R,3R)-3-{3-[3-fluoro-4-(3-oxo-morpholin-4-yl)-phenyl]-3H-[1,2,3]triazolo[4,5-d]pyrimidin-5-ylamino}-cyclopentanecarboxylic acid amide], the IC50 is under 1 µM. With `COc1c(F)cc(-n2nnc3cnc(N[C@@H]4CC[C@@H](C(N)=O)C4)nc32)cc1F` [A163, (1R,3R)-3-[3-(3,5-difluoro-4-methoxy-phenyl)-3H-[1,2,3]triazolo[4,5-d]pyrimidin-5-ylamino]-cyclopentanecarboxylic acid amide], the IC50 was under 1 µM. `COCCOc1ccc(-n2nnc3cnc(N[C@@H]4CC[C@H](C(N)=O)C4)nc32)cc1` [A166, (1S,3R)-3-{3-[4-(2-methoxy-ethoxy)-phenyl]-3H-[1,2,3]triazolo[4,5-d]pyrimidin-5-ylamino}-cyclopentanecarboxylic acid amide]: the IC50 was under 1 µM. In turn, `NC(=O)[C@H]1CC[C@@H](Nc2ncc3nnn(-c4ccc(I)cc4)c3n2)C1` [A171, (1S,3R)-3-[3-(4-iodo-phenyl)-3H-[1,2,3]triazolo[4,5-d]pyrimidin-5-ylamino]-cyclopentanecarboxylic acid amide] returned an IC50 of under 1 µM. With `O=C(O)[C@H]1CC[C@@H](Nc2ncc3nnn(-c4ccc5ncccc5c4)c3n2)C1` [A188, (1S,3R)-3-(3-quinolin-6-yl-3H-[1,2,3]triazolo[4,5-d]pyrimidin-5-ylamino)-cyclopentanecarboxylic acid], the IC50 was under 1 µM.

The record behind these values is patent US9855268B2, “Triazolo[4,5-d]pyrimidine derivatives” (Merck Patent GmbH, priority 2013, dated 2018).
